# What was measured:
# primary microglia = assay: Intracellular Aβ degradation by primary microglia; format: cell-based, murine
# Description: FIG. 5 illustrates graphs showing RXR agonists stimulate Aβ degradation.
# Given the ability of RXR activation to drive LXR target gene expression, we predicted that agonist treatment should promote the proteolytic degradation of Aβ by microglia. […] Aβ uptake was unaffected by either drug treatment.
# microglia = assay: Inhibition of RXR mediated intracellular Aβ degradation by PPARγ or LXR inhibitors, microglia; format: cell-based; settings: inhibitor pretreatment 1.5 hrs, Bexarotene 24 hours, 2 ug/mL soluble Aβ 18 hours
# Description: (§1) FIG. 14 illustrates graphs showing RXR mediated intracellular Aβ degradation is prevented by inhibiting PPARγ or LXR.
# (§2) To determine which heterodimer partners are involved in RXR activation driven Aβ intracellular degradation, we inhibited PPARγ and LXR by competitive inhibitors, TO and 22-s-Hydroxycholesterol, respectively. Aβ degradation mediated by either microglia (A) or astrocytes (B) is inhibited with either inhibitor to PPAR or LXR. Additionally, a co-treatment with both inhibitors reduces Aβ degradation further (FIG. 14).
# astrocytes = assay: Inhibition of RXR mediated intracellular Aβ degradation by PPARγ or LXR inhibitors, astrocytes; format: cell-based; settings: inhibitor pretreatment 1.5 hrs, Bexarotene 24 hours, 2 ug/mL soluble Aβ 18 hours
# Description: as §1, §2
# [1] = extended periods in humans; cited from earlier work
# [2] = test system: ApoE knock out astrocytes; assay: Intracellular Aβ degradation in ApoE knock out astrocytes; format: cell-based, murine; settings: without ApoE
# ApoE knock out microglia = assay: Intracellular Aβ degradation in ApoE knock out microglia; format: cell-based, murine; settings: without ApoE
# [3] = therapeutic doses, FDA alert May 21, 2007; cited from earlier work
smiles,measurement,setting,value
CC1=C(/C=C/C(C)=C\C=C\C(C)=C\C(=O)O)C(C)(C)CCC1 [9cisRA],Aβ uptake,primary microglia,unaffected
same,intracellular Aβ levels,primary microglia; drug 24 hours then 18 hours with 2 μg/mL soluble Aβ,dose-dependent reduction
CC(C)CC[C@H](O)[C@@H](C)[C@H]1CC[C@H]2[C@@H]3CC=C4C[C@@H](O)CC[C@]4(C)[C@H]3CC[C@]12C [22-s-Hydroxycholesterol],Bexarotene driven intracellular Aβ degradation,microglia,inhibited
same,Bexarotene driven intracellular Aβ degradation,astrocytes,inhibited
C=C(c1ccc(C(=O)O)cc1)c1cc2c(cc1C)C(C)(C)CCC2(C)C [Bexarotene],clinical safety profile,[1],good safety profile
same,intracellular Aβ degradation,[2],no effect
same,intracellular Aβ degradation,ApoE knock out microglia,no effect
"CN(CCOc1ccc(CC2SC(=O)NC2=O)cc1)c1ccccn1 (stereo not drawn) [rosiglitazone, 5-[4-[2-(N-methyl-N-(2-pyridyl)amino]ethoxy]benzyl]thiazolidine-2,4-dione]",risk of death from all cardiovascular diseases,[3],even higher risk of death from all cardiovascular diseases
same,risk of heart attack,[3],significantly increased risk of heart attack
